Experimental data: US10278954B2, “Method of treating a CNS disorder using a water-soluble histone deacetylase inhibitor” (priority 2016, dated 2019)

Key:
[1] = test system: synaptophysin; test: Synaptophysin ELISA of protein isolated from rat brain; type: in vivo; conditions: 21 days after infusion; 1 way ANOVA p>0.05
Description: A) Immunofluorescent microscopy of fixed rat brain for neurons (NeuN) and glia (GFAP) 21 days after acute striatal infusion of 5 μl of either aCSF (control), F127-aCSF or F127-PAN. B) Synaptophysin ELISA of protein isolated from rat brain 21 days after infusion comparing F127-aCSF, F127-PAN and Panobinostat in DMSO against aCSF and untreated controls. […] (1 way ANOVA p>0.05).

[2] = test system: SF7761 glioma cell line; test: MTT assay, SF7761; type: cell-based, human
Description: (§1) Two independent glioma cell lines (A) SF7761 and (B) SF8628 were dosed with sodium valproate for 72 h, then subjected to an MTT assay to assess the effect of the drug on proliferation of glioma cells. Results are expressed as a % relative to untreated control. […] Two glioma cell lines (A) SF7761 and (B) SF8628 were dosed with sodium valproate for 72 h, followed by 6 h of carboplatin, after which, the drug was washed out and given fresh sodium valproate. Proliferation was assessed by MTT assay, and results expressed as a % relative to the untreated control cells.

[3] = test system: SF8628 glioma cell line; test: MTT assay, SF8628; type: cell-based, human
Description: as §1

[4] = test system: glioma cell line; test: MTT assay, 6 h sequential dosing on two consecutive days; type: cell-based, human
Description: One glioma cell line thus far has been tested with (A) 6 h dosing of VPA repeated one two consecutive days, followed by assessment of proliferation by MTT.

[5] = test system: normal hippocampal neuronal and glial cells; test: Toxicity in normal hippocampal cultures (B3 tubulin, GFAP staining); type: cell-based; conditions: 6 h dosing, assayed 72 h after
Description: Normal hippocampal cells were plated onto coverslips and grown for 72 h prior to dosing with sodium valproate to assess the toxicity of the drug against normal neuronal and glial cells. Cells were drugged with sodium valproate for 6 h, after which time the drug was washed off and fresh media added. Cells were further incubated for 72 h prior to fixing and staining with B3 tubulin (neuronal marker) and GFAP (glial cell marker) to determine to the toxicity of sodium valproate.

[6] = pre-conditioning with sodium valproate prior to carboplatin
[7] = sodium valproate 72 h, then 6 h carboplatin

Cc1[nH]c2ccccc2c1CCNCc1ccc(/C=C/C(=O)NO)cc1 [Panobinostat in DMSO, panobinostat]
synaptophysin concentration against aCSF and untreated controls [1]: No significant difference detected

CCCC(CCC)C(=O)[O-].[Na+] [sodium valproate]
cytotoxicity (proliferation, % relative to untreated control) ([2]; 72 h dosing): causes cytotoxicity to glioma cells in a dose dependent manner | combination index (CI) [2, 6]: below 1 | effect of pre-dosing on cytotoxicity of carboplatin [2, 7]: potentiates the cytotoxicity of carboplatin | cytotoxicity (proliferation, % relative to untreated control) ([3]; 72 h dosing): causes cytotoxicity to glioma cells in a dose dependent manner | combination index (CI) [3, 6]: below 1 | effect of pre-dosing on cytotoxicity of carboplatin [3, 7]: potentiates the cytotoxicity of carboplatin | cell viability, % relative to control ([4]; 6 h dosing on two consecutive days): dose dependent decrease in cell viability | cell viability, combined dosing with carboplatin ([4]; carboplatin and sodium valproate 6 h on two consecutive days): greater decrease in cell viability compared with carboplatin alone | glial toxicity (GFAP) ([5]; 20 mM): Some toxicity | neuronal toxicity (B3 tubulin) [5]: minimal neuronal toxicity
